Test results published in patent publication US10344071B2, “Identification of novel anti-fibrotic peptide in C-terminal region of the MET receptor tyrosine kinase” (MUSC Foundation for Research Development, priority 2015, dated 2019).
One block for each substance: values may come before it. Ends that are not written are not given here.

Assays:
[1] = test system: scleroderma LF transfected with MET WT or MET D1398G; assay: Collagen, SMA, CTGF in transfected scleroderma lung fibroblasts, Western blot; type: cell-based, human; details: 50 ng/ml for 48 hours
Procedure: FIG. 2, comprising FIG. 2A and FIG. 2B, depicts Expression of type I collagen, SMA, and CCN2 in scleroderma lung fibroblasts (LF) transfected with MET WT and MET D1398G. FIG. 2A depicts transfected SSc LF were serum-starved for 24 hours followed by incubation for 48 hours with recombinant HGF (50 ng/ml). The cells were collected with lysis buffer and analyzed by Western blot with indicated antibodies including MET as a transfection efficiency control. Anti-β-actin antibody was used as a loading control. FIG. 2B depicts quantitative results of densitometric analysis of immunoblots. Values are the mean and SD from four independent experiments.
(§1) Cells were collected and analyzed by immunoblotting as previously described (Bogatkevich et al., J Biol Chem. 2001, 276:45184-45192; Bogatkevich et al., Arthritis Rheum. 2007, 56:3468-3477). Phosphorylation of MET was analyzed using anti-phospho-c-Met [pYpYpY^1230/1234/1235], pY^1349, and pY^1356 antibodies (BioSource International, Inc., Camarillo, Calif.). Total MET was immunobloted using anti-MET (C12) (Santa Cruz Biotechnology, Santa Cruz, Calif.) and anti-MET (25H2) (Cell Signaling, Danvers, Mass.). Anti-type I collagen antibody (Southern Biotechnology, Birmingham, Ala.)), anti-CTGF antibody (Santa Cruz Biotechnology, Santa Cruz, Calif.), and anti-smooth-α-actin antibody (Sigma, St. Louis, Mo.) were also used. […]

Ras = Ras Activity Assay (G-LISA, Ras-GTP); type: cell-based, human; details: 50 ng/ml; LF and AEC transfected with MET WT
Procedure: (§2) FIG. 4, comprising FIG. 4A through FIG. 4D, depicts the effect of HGF on Ras activation and Erk1/2 phosphorylation in lung fibroblasts (LF) and alveolar epithelial cells (AEC). FIG. 4A depicts HGF-induced Erk1/2 phosphorylation in LF and AEC transfected with MET WT and MET D1398G was determined in cells treated with HGF (50 ng/ml) for 10 min. Cell extracts were immunoblotted with anti-phospho-Erk1/2 or anti-Erk1/2, anti-MET, and anti-β-actin antibodies. FIG. 4B depicts densitometric analysis of phospho-Erk1/2 immunoblots from three independent experiments. FIG. 4C and FIG. 4D depict Ras activity in LF and AEC respectively, transfected with MET WT and MET D1398G treated with and without HGF (50 ng/ml) for 10 min.
G-LISA Kit (Cytoskeleton Inc., Denver, Colo.) was used to measure endogenous Ras-GTP levels. […] Bound Ras-GTP levels were determined by anti-Ras primary antibody followed by horseradish peroxidase-conjugated secondary antibody. A peroxidase substrate was applied, and the plates were read at 450 nm on a spectrophotometer.
HGF-induced phosphorylation of Erk1/2 is mediated by Ras (Campbell, et al., Oncogene, 1998, 17:1395-413). To investigate whether D1398G mutation affects MET-dependent Ras activation, Ras-GTP in LF and in AEC transfected with MET WT and with MET D1398G was measured.

[2] = test system: normal LF transfected with MET WT or MET D1398G; assay: Collagen, SMA, CTGF in transfected TGFβ-stimulated normal lung fibroblasts, Western blot; type: cell-based, human; details: 48 hours
Procedure: FIG. 3, comprising FIG. 3A through FIG. 3D, depicts expression of type I collagen, SMA, and CCN2 in normal lung fibroblasts (LF) transfected with MET WT and MET D1398G. Transfected […] lung fibroblasts were serum-starved for 24 hours followed by incubation for 48 hours with recombinant TGFβ (5 ng/ml) and/or HGF (50 ng/ml). FIG. 3A depicts that the cells were collected with lysis buffer and analyzed by Western blot with indicated antibodies including MET as a transfection efficiency control and anti-β-actin antibody as a loading control. FIG. 3B through FIG. 3D depict densitometric analysis of immunoblots for collagen, SMA and CCN2 respectively. Values are the mean and SD from three independent experiments.
as §1, with “Mass.).” for “Mass.). Anti-type I collagen antibody (Southern Biotechnology, Birmingham, Ala.)), anti-CTGF antibody (Santa Cruz Biotechnology, Santa Cruz, Calif.), and anti-smooth-α-actin antibody (Sigma, St. Louis, Mo.) were also used.”

MET D1398G = target: T1, MET D1398G (Homo sapiens, UniProt P08581, D1380G); assay: HGF-induced MET tyrosine phosphorylation in transfected LF and AEC; type: cell-based; details: HGF 50 ng/ml
T1 construct: The wild type (WT) full-length c-MET cDNA in pLXSN; expressed in transfected cells; host or cells: lung fibroblasts (LF) and A549 alveolar epithelial cells, infected with recombinant adenovirus (pAdTrack-CMV/AdEasy)
Procedure: (§3) FIG. 1, comprising FIG. 1A and FIG. 1B, depicts MET tyrosine phosphorylation in lung fibroblasts (LF) and alveolar epithelial cells (AEC). FIG. 1A depicts a time course of MET WT and MET D1398G tyrosine phosphorylation as determined in LF and AEC incubated with HGF (50 ng/ml) for various time points. Cell extracts were immunoblotted with anti-phospho-MET or anti-MET polyclonal antibodies (see details in Materials and Methods). FIG. 1B depicts quantitative results of densitometric analysis of immunoblots. Values are the mean and SD from three independent experiments.
(§4) Cells were collected and analyzed by immunoblotting as previously described (Bogatkevich et al., J Biol Chem. 2001, 276:45184-45192; Bogatkevich et al., Arthritis Rheum. 2007, 56:3468-3477). Phosphorylation of MET was analyzed using anti-phospho-c-Met [pYpYpY^1230/1234/1235], pY^1349, and pY^1356 antibodies (BioSource International, Inc., Camarillo, Calif.). Total MET was immunobloted using anti-MET (C12) (Santa Cruz Biotechnology, Santa Cruz, Calif.) and anti-MET (25H2) (Cell Signaling, Danvers, Mass.). Anti-type I collagen antibody (Southern Biotechnology, Birmingham, Ala.)), anti-CTGF antibody (Santa Cruz Biotechnology, Santa Cruz, Calif.), and anti-smooth-α-actin antibody (Sigma, St. Louis, Mo.) were also used.
(§5) As an initial approach to evaluate the functional consequences of D1398G mutation, HGF-induced MET autophosphorylation was studied in LF and AEC (A549 cell line) transfected either with MET WT or D1398G mutant. MET tyrosine phosphorylation was assessed using anti-phospho-c-Met[pYpYpY^1230/1234/1235], pY^1349, and pY^1356 antibodies. Treatment with HGF induced rapid phosphorylation of MET WT at tyrosine 1230, 1234, and 1235 in both LF and AEC. Maximal phosphorylation was observed within 5 minutes of HGF treatment and decreased by 20 minutes following HGF treatment (FIG. 1). […] The time course of HGF-induced phosphorylation at tyrosine 1356 in LF resembled tyrosine 1230, 1234, and 1235 phosphorylation with maximal levels observed within 5 minutes of HGF treatment. Tyrosine 1356 phosphorylation in AEC appeared to be stronger than in LF with maximal levels observed within 20 minutes of HGF treatment.

MET WT = target: T2, MET WT (Homo sapiens, UniProt P08581); assay: as above; type: cell-based; details: HGF 50 ng/ml
T2 construct: The wild type (WT) full-length c-MET cDNA in pLXSN; expressed in transfected cells; host or cells: lung fibroblasts (LF) and A549 alveolar epithelial cells, infected with recombinant adenovirus (pAdTrack-CMV/AdEasy)
Procedure: as §3, §4, §5

Erk1/2 phosphorylation = assay: HGF-induced Erk1/2 phosphorylation in transfected LF and AEC; type: cell-based, human; details: 50 ng/ml for 10 min
Procedure: as §2
The phosphorylation of p42/p44 MAPK isoforms was analyzed using anti-phospho-Erk1/2 and Erk1/2 antibodies in accordance with the manufacturer's instructions (Cell Signaling Technology, Danvers, Mass.). Immunoblots were routinely stripped and reblotted with anti-β-actin antibody (Sigma, St. Louis, Mo.) as a loading control.
To investigate whether the D1398G mutation affects MAPK signaling pathways, the Erk1/2 phosphorylation was examined. Basal and HGF-induced Erk1/2 phosphorylation were more prominent in AEC as compared with LF. […] The basal level of nonphosphorylated Erk1/2 in LF and AEC was not affected either by HGF stimulation or by transfection with D1398G mutation.

[3] = test system: TGFβ-stimulated lung fibroblasts; assay: Collagen in TGFβ-stimulated lung fibroblasts, immunoblot; type: cell-based; details: 1 μg/ml for 24 h; TGFβ 5 ng/ml
Procedure: FIG. 18 depicts M5 peptide inhibits collagen in TGFβ-stimulated lung fibroblasts. Cells were incubated with and without TGFβ (5 ng/ml) and M5 peptide (1 μg/ml) for 24 h and analyzed by immunoblotting using anti-collagen type I antibody. Beta-actin was used as a loading control.
A peptide containing just the M5 sequence (TRPAS (SEQ ID NO: 4)) was generated and was tested for its effect on collagen.

[4] = test system: bleomycin-induced pulmonary fibrosis; details: mouse, in vivo
Excerpt: FIG. 14A depicts representative histologic findings of lung inflammation and fibrosis. […] FIG. 14B depicts a quantitative evaluation of fibrotic changes (Ashcroft scores), n=32 (8 mice per group).
Mice (n=6), C57BL/6 male were used in this study. Mice were maintained in animal quarters specially designated for pathogen-free mice and were provided with food and water ad libitum. Lung injury was induced by intratracheal instillation of bleomycin (2 U/kg in saline) under isoflurane anesthesia. Control mice received same volume of saline. […] Control mice received 10 mg/kg scrambled peptide. Animals were sacrificed in 3 weeks, and lungs were harvested and processed for tissue staining.
Sacrificed mice were subjected to midline thoracotomy. […]
To evaluate the stages of lung fibrosis, multiple sections from each lung were stained with Hematoxylin and eosin (H & E staining) or with trichrome staining for collagen and other extracellular matrix proteins. Fibrosis quantification was performed by using 0 (normal) to 8 (total fibrosis) Ashcroft scale (Ashcroft, et al., J Clin Pathol, 1988, 41:467-470). Morphological changes such as the thickness of alveolar septa, accumulation of vascular component and connective tissue, infiltration of inflammatory cells were analyzed. For histological evaluation each specimens were divided in 10 non-overlapping fields and scored independently. […]

tyrosine phosphorylation of MET D1398G in contrast to MET WT (MET D1398G; LF and AEC): decreased and delayed
time of maximal phosphorylation at tyrosine 1356 (MET D1398G; MET D1398G): 1 h
time of maximal phosphorylation at tyrosine 1356 (MET WT; AEC): ≤ 20 min
time of maximal phosphorylation at tyrosine 1356 (MET WT; LF): ≤ 5 min
time of maximal phosphorylation at tyrosine 1230, 1234, and 1235 (MET WT; LF and AEC): ≤ 5 min
Substance: HGF: recombinant hepatocyte growth factor, ligand of the MET receptor
expression of collagen, SMA, and CTGF ([1]; scleroderma LF transfected with MET D1398G): not in LF transfected with mutant MET D1398G
expression of collagen, SMA, and CTGF ([1]; scleroderma LF transfected with MET WT): reduced expression of collagen, SMA, and CTGF
total Ras activity (Ras): significant increase in total Ras activity
levels of collagen, SMA and CTGF [2]: decreased the levels of collagen, SMA and CTGF
HGF-induced Erk1/2 phosphorylation, MET WT compared with MET D1398G cells (Erk1/2 phosphorylation): notably higher
Erk1/2 phosphorylation (Erk1/2 phosphorylation; LF and AEC transfected with MET WT or MET D1398G): further induced Erk1/2 phosphorylation

Substance: TRPAS (M5 Peptide) [C-terminal fragment of the MET receptor]
level of collagen versus fibroblasts stimulated with TGFβ [3]: reduced level of collagen

Substance: TRPASFWETS [M10]
cell viability measured by the ATP-dependent assay (cell viability): does not affect cell viability
lung histology in control mice that received saline and peptide [4]: normal septa, vascular components, and connective tissue
